According to PubChem BioAssay (NCI):
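1) Cells in 96-well plates. 2) Compound, 48 h, 5 concentrations. 3) Linear interpolation between surrounding doses. 4) Unreached endpoint = highest concentration. At the TGI there is no net growth.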

Tested on: COLO 205 colon
Test: growth of human tumour cells (NCI), 48 h

SMILES	TGI [µM]
CC(=O)c1c2c(c3ccccc3c1O)O[C@@H]1OCC[C@H]21	> 100
C(=C(c1ccc(OC2CCCCO2)cc1)c1ccc(OC2CCCCO2)cc1)c1ccccc1 (stereo not given)	1.6
CC(=O)Oc1cccc2c1C(=O)CCCC2	> 100
CCN(CC)C(=S)N/N=C/c1cc([N+](=O)[O-])ccc1O	18.1
Cc1ccc(NC(=O)c2ccc(OP(=O)(O)Nc3ccc(C)cc3)cc2)cc1	> 100
Cc1ccnc(NS(=O)(=O)c2ccc(N=[N+]=[N-])cc2)n1	> 100
COc1ccc(-c2[nH]c3c4c(nc5c(c24)C(=O)CC(C)(C)C5)CC(C)(C)C3)cc1	> 100
CCC(=O)NCC1CCCN2CCCCC12 (stereo not given)	> 100
Cc1ccc(N(Cc2ccccc2)Cc2ccccc2)cc1	> 100
Nc1nc(-c2ccccc2)nc2oc(-c3cccs3)nc12	> 100
S=C(N/N=C(/c1ccccc1)c1ccccn1)N(Cc1ccccn1)Cc1ccccn1	2.02
Cn1c(=O)c2c(nc3n2CC(C(=O)O)N3)n(C)c1=O (stereo not given)	> 100
Cc1oc2c(cc(O)c3cc(O)ccc32)c2cccc1-2	> 100
NC(N)=Nc1ccc(CC(N)NCC(=O)O)cc1 (stereo not given)	> 25
COC(=O)C1=C(C(=O)OC)SC(=C2SCSC3=C2SC(C(=O)OC)=C(C(=O)OC)C32SC3=C(CCCC3)S2)S1	> 100
COc1ccc(-n2c(C)nc3ccc(NC(=S)Nc4ccccc4)cc3c2=O)cc1	> 100
O=C(NCc1ccccc1)c1n[nH][nH]c1=O	> 100
CCOC(=O)N1CCN(Cc2cc(=O)n3ccc(C)cc3n2)CC1	> 100
N#CC(NCc1cccc(CNC(C#N)c2ccccc2)c1)c1ccccc1 (stereo not given)	42.6

Tested on: HCT-116 colon
Test: growth of human tumour cells (NCI), 48 h

SMILES	TGI [µM]
CC(=O)c1c2c(c3ccccc3c1O)O[C@@H]1OCC[C@H]21	> 100
C(=C(c1ccc(OC2CCCCO2)cc1)c1ccc(OC2CCCCO2)cc1)c1ccccc1 (stereo not given)	1.64
CC(=O)Oc1cccc2c1C(=O)CCCC2	> 100
CCN(CC)C(=S)N/N=C/c1cc([N+](=O)[O-])ccc1O	12
Cc1ccc(NC(=O)c2ccc(OP(=O)(O)Nc3ccc(C)cc3)cc2)cc1	> 100
Cc1ccnc(NS(=O)(=O)c2ccc(N=[N+]=[N-])cc2)n1	> 100
COc1ccc(-c2[nH]c3c4c(nc5c(c24)C(=O)CC(C)(C)C5)CC(C)(C)C3)cc1	> 100
CCC(=O)NCC1CCCN2CCCCC12 (stereo not given)	> 100
Cc1ccc(N(Cc2ccccc2)Cc2ccccc2)cc1	> 100
Nc1nc(-c2ccccc2)nc2oc(-c3cccs3)nc12	> 100
S=C(N/N=C(/c1ccccc1)c1ccccn1)N(Cc1ccccn1)Cc1ccccn1	1.59
Cn1c(=O)c2c(nc3n2CC(C(=O)O)N3)n(C)c1=O (stereo not given)	> 100
Cc1oc2c(cc(O)c3cc(O)ccc32)c2cccc1-2	> 100
NC(N)=Nc1ccc(CC(N)NCC(=O)O)cc1 (stereo not given)	> 25
COC(=O)C1=C(C(=O)OC)SC(=C2SCSC3=C2SC(C(=O)OC)=C(C(=O)OC)C32SC3=C(CCCC3)S2)S1	> 100
COc1ccc(-n2c(C)nc3ccc(NC(=S)Nc4ccccc4)cc3c2=O)cc1	> 100
O=C(NCc1ccccc1)c1n[nH][nH]c1=O	> 100
CCOC(=O)N1CCN(Cc2cc(=O)n3ccc(C)cc3n2)CC1	> 100
N#CC(NCc1cccc(CNC(C#N)c2ccccc2)c1)c1ccccc1 (stereo not given)	56.4

Tested on: HL-60(TB) leukemia
Test: growth of human tumour cells (NCI), 48 h

SMILES	TGI [µM]
CC(=O)c1c2c(c3ccccc3c1O)O[C@@H]1OCC[C@H]21	> 100
C(=C(c1ccc(OC2CCCCO2)cc1)c1ccc(OC2CCCCO2)cc1)c1ccccc1 (stereo not given)	1.19
CC(=O)Oc1cccc2c1C(=O)CCCC2	> 100
CCN(CC)C(=S)N/N=C/c1cc([N+](=O)[O-])ccc1O	6.08
Cc1ccc(NC(=O)c2ccc(OP(=O)(O)Nc3ccc(C)cc3)cc2)cc1	> 100
Cc1ccnc(NS(=O)(=O)c2ccc(N=[N+]=[N-])cc2)n1	> 86.3
COc1ccc(-c2[nH]c3c4c(nc5c(c24)C(=O)CC(C)(C)C5)CC(C)(C)C3)cc1	> 100
CCC(=O)NCC1CCCN2CCCCC12 (stereo not given)	> 100
Cc1ccc(N(Cc2ccccc2)Cc2ccccc2)cc1	> 100
Nc1nc(-c2ccccc2)nc2oc(-c3cccs3)nc12	> 100
S=C(N/N=C(/c1ccccc1)c1ccccn1)N(Cc1ccccn1)Cc1ccccn1	> 100
Cn1c(=O)c2c(nc3n2CC(C(=O)O)N3)n(C)c1=O (stereo not given)	> 100
Cc1oc2c(cc(O)c3cc(O)ccc32)c2cccc1-2	> 100
NC(N)=Nc1ccc(CC(N)NCC(=O)O)cc1 (stereo not given)	> 25
COC(=O)C1=C(C(=O)OC)SC(=C2SCSC3=C2SC(C(=O)OC)=C(C(=O)OC)C32SC3=C(CCCC3)S2)S1	> 100
COc1ccc(-n2c(C)nc3ccc(NC(=S)Nc4ccccc4)cc3c2=O)cc1	> 100
O=C(NCc1ccccc1)c1n[nH][nH]c1=O	> 100
CCOC(=O)N1CCN(Cc2cc(=O)n3ccc(C)cc3n2)CC1	> 100
N#CC(NCc1cccc(CNC(C#N)c2ccccc2)c1)c1ccccc1 (stereo not given)	43.4

Tested on: HT29 colon
Test: growth of human tumour cells (NCI), 48 h

SMILES	TGI [µM]
CC(=O)c1c2c(c3ccccc3c1O)O[C@@H]1OCC[C@H]21	> 100
C(=C(c1ccc(OC2CCCCO2)cc1)c1ccc(OC2CCCCO2)cc1)c1ccccc1 (stereo not given)	1.28
CC(=O)Oc1cccc2c1C(=O)CCCC2	> 100
CCN(CC)C(=S)N/N=C/c1cc([N+](=O)[O-])ccc1O	> 100
Cc1ccc(NC(=O)c2ccc(OP(=O)(O)Nc3ccc(C)cc3)cc2)cc1	> 100
Cc1ccnc(NS(=O)(=O)c2ccc(N=[N+]=[N-])cc2)n1	> 100
COc1ccc(-c2[nH]c3c4c(nc5c(c24)C(=O)CC(C)(C)C5)CC(C)(C)C3)cc1	> 100
CCC(=O)NCC1CCCN2CCCCC12 (stereo not given)	> 100
Cc1ccc(N(Cc2ccccc2)Cc2ccccc2)cc1	> 100
Nc1nc(-c2ccccc2)nc2oc(-c3cccs3)nc12	> 100
S=C(N/N=C(/c1ccccc1)c1ccccn1)N(Cc1ccccn1)Cc1ccccn1	2.09
Cn1c(=O)c2c(nc3n2CC(C(=O)O)N3)n(C)c1=O (stereo not given)	> 100
Cc1oc2c(cc(O)c3cc(O)ccc32)c2cccc1-2	> 100
NC(N)=Nc1ccc(CC(N)NCC(=O)O)cc1 (stereo not given)	> 25
COC(=O)C1=C(C(=O)OC)SC(=C2SCSC3=C2SC(C(=O)OC)=C(C(=O)OC)C32SC3=C(CCCC3)S2)S1	> 100
COc1ccc(-n2c(C)nc3ccc(NC(=S)Nc4ccccc4)cc3c2=O)cc1	> 100
O=C(NCc1ccccc1)c1n[nH][nH]c1=O	> 100
CCOC(=O)N1CCN(Cc2cc(=O)n3ccc(C)cc3n2)CC1	> 100
N#CC(NCc1cccc(CNC(C#N)c2ccccc2)c1)c1ccccc1 (stereo not given)	30.8

Tested on: NCI-H23 lung
Test: growth of human tumour cells (NCI), 48 h

SMILES	TGI [µM]
CC(=O)c1c2c(c3ccccc3c1O)O[C@@H]1OCC[C@H]21	> 100
C(=C(c1ccc(OC2CCCCO2)cc1)c1ccc(OC2CCCCO2)cc1)c1ccccc1 (stereo not given)	2.24
CC(=O)Oc1cccc2c1C(=O)CCCC2	> 100
CCN(CC)C(=S)N/N=C/c1cc([N+](=O)[O-])ccc1O	28.9
Cc1ccc(NC(=O)c2ccc(OP(=O)(O)Nc3ccc(C)cc3)cc2)cc1	> 100
Cc1ccnc(NS(=O)(=O)c2ccc(N=[N+]=[N-])cc2)n1	> 100
COc1ccc(-c2[nH]c3c4c(nc5c(c24)C(=O)CC(C)(C)C5)CC(C)(C)C3)cc1	> 100
CCC(=O)NCC1CCCN2CCCCC12 (stereo not given)	> 100
Cc1ccc(N(Cc2ccccc2)Cc2ccccc2)cc1	> 100
Nc1nc(-c2ccccc2)nc2oc(-c3cccs3)nc12	> 100
S=C(N/N=C(/c1ccccc1)c1ccccn1)N(Cc1ccccn1)Cc1ccccn1	1.57
Cn1c(=O)c2c(nc3n2CC(C(=O)O)N3)n(C)c1=O (stereo not given)	> 100
Cc1oc2c(cc(O)c3cc(O)ccc32)c2cccc1-2	> 100
NC(N)=Nc1ccc(CC(N)NCC(=O)O)cc1 (stereo not given)	> 25
COC(=O)C1=C(C(=O)OC)SC(=C2SCSC3=C2SC(C(=O)OC)=C(C(=O)OC)C32SC3=C(CCCC3)S2)S1	> 100
COc1ccc(-n2c(C)nc3ccc(NC(=S)Nc4ccccc4)cc3c2=O)cc1	> 100
O=C(NCc1ccccc1)c1n[nH][nH]c1=O	> 100
CCOC(=O)N1CCN(Cc2cc(=O)n3ccc(C)cc3n2)CC1	> 100
N#CC(NCc1cccc(CNC(C#N)c2ccccc2)c1)c1ccccc1 (stereo not given)	> 100
